Experiments:
[1] = tested on: PKC; test: Protein kinase C assay (histone phosphorylation) in Hermissenda nervous systems; format: in vivo
Description: Bryostatin exposure—Specimens of Hermissenda Crassicornis were maintained in artificial sea water (ASW) at 15° for three days in perforated 50-ml conical centrifuge tubes before starting experiments. Bryostatin, purified from the marine bryozoan Bugula neritina, was dissolved in EtOH and diluted to its final concentration in ASW. Animals were incubated with bryostatin in ASW for 4 hr, then rinsed with normal ASW. For selected experiments lactacysteine (10 μM) or anisomycin was added to the ASW.
Cells were homogenized by sonication (5 sec, 25 W) in 100 μl of 10 mM Tris-HCl pH 7.4 buffer containing 1 mM EGTA, 1 mM PMSF, and 50 mM NaF. Homogenate was transferred to a polyallomer centrifuge tube and was centrifuged at 100,000×g for 10 min at 4°. The supernatant was removed and immediately frozen on dry ice. The particulate fraction was resuspended by sonication in 100 μl of the same buffer and stored at −80°. To measure PKC, 10 μl of cytosol or particulate fraction was incubated for 15 min at 37° in the presence of 10 μM histones, 4.89 mM CaCl2, 1.2 μg/μl phosphatidyl-L-serine, 0.18 μg/μl 1,2-dioctanoyl-sn-glycerol, 10 mM MgCl2, 20 mM HEPES (pH 7.4), 0-8 mM EDTA, 4 mM EGTA, 4% glycerol, 8 μg/ml aprotinin, 8 μg/ml leupeptin, and 2 mM benzamidine. 0.5 μCi [γ^32P]ATP was added and ^32P-phosphoprotein formation was measured by adsorption onto phosphocellulose as described previously (25). This assay was used with slight adjustments for either Hermissenda nervous system homogenates or cultured mammalian neuron homogenates
Intact Hermissenda were exposed for 4 hour intervals to bryostatin (0.28 nM) on successive days under conditions described (“Behavioral Pharmacology”). Histone phosphorylation (See “Methods”) in isolated circumesophageal nervous systems was then measured in the cytosol fraction. […] (FIG. 12, 13). […] After an initial activation (via translocation), this bryostatin effect is most likely due to increased synthesis of PKC, consistent with the increased levels of calexcitin induced by bryostatin, but not directly correlated with repeated bryostatin exposure.

[2] = tested on: Rat hippocampal H19-7/IGF-IR cells; test: Protein synthesis by [35S]Methionine incorporation; format: cell-based; conditions: single 30-minute exposure to 0.28 nM bryostatin
Description: FIG. 17 depicts the effects of bryostatin on protein synthesis. Rat IGF-IR cells were incubated for 30 minutes with 0.28 nM bryostatin for incubation times ranging from 1 to 79 hours. [^35S]Methionine (9.1 μCi) was then added to the medium followed by analysis of radiolabel.
Rat hippocampal H19-7/IGF-IR cells (ATCC) were plated onto poly-L-lysine coated plates and grown at 35° in DMEM/10% FCS for several days until approx. 50% coverage was obtained. The cells were then induced to differentiate into a neuronal phenotype by replacing the medium with 5 ml N2 medium containing 10 ng/ml basic fibroblast growth factor and grown in T-25 flasks at 39° C. (26). Various concentrations of bryostatin (0.01-1.0 nM) were then added in 10 μl aqueous solution. After a specified interval, the medium was removed and the cells were washed with PBS, removed by gentle scraping, and collected by centrifugation at 1000 rpm for 5 min.
In fact, we found here that a single 30-minute exposure to 0.28 nM bryostatin increased overall protein synthesis (FIG. 17), measured by incorporation of ^35-S Methionine in the last ½ hour before collecting the neurons, by 20% within 24 h, increasing to 60% by 79 hours after the bryostatin exposure.

[3] = tested on: sAPP secretion; conditions: human fibroblasts; cited from earlier work
[4] = tested on: PKC; conditions: cited from earlier work
[5] = in vivo; cited from earlier work

CCC/C=C/C=C/C(=O)O[C@H]1/C(=C/C(=O)OC)C[C@H]2C[C@H]([C@@H](C)O)OC(=O)C[C@H](O)C[C@@H]3C[C@H](OC(C)=O)C(C)(C)[C@](O)(C[C@@H]4C/C(=C/C(=O)OC)C[C@H](/C=C/C(C)(C)[C@]1(O)O2)O4)O3 [bryostatin, bryostatin-1]
PKC activity, membrane fraction ([1]; 24 hours after the second of two bryostatin exposures): significantly increased over baseline
PKC activity, cytosol fraction ([1]; bryostatin 0.28 nM 4 hour on successive days, 10 minutes and 24 hours after second of two exposures): significantly increased over baseline levels
increase of overall protein synthesis ([2]; by 79 hours): 60%
increase of overall protein synthesis ([2]; within 24 h): 20%
alpha-secretase cleavage of APP to sAPP [3]: activate the alpha-secretase
concentrations that activate PKC [4]: sub-nanomolar
rat spatial maze learning [5]: enhanced

From US8703812B2, “Protein synthesis required for long-term memory is induced by PKC activation on days preceding associative learning” (Blanchette Rockefeller Neurosciences Institute, priority 2005, dated 2014)
